Like-named read-outs stand apart in the source and are kept apart here.
Columns and labels:
in vitro = assay type: cell-based, human; details: human, 50% reduction in the level of ATP in HOS cells
In short: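 Cells exposed to compounds over a concentration range for 48 hrs at 37° C. Viability read as cellular ATP by luciferase (ATPlite) luminescence after lysis, normalised to untreated cells; CC50 derived by regression fit.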

[1] = tested on: HIV-1 constructs containing mutant IN G140S-Q148H; test: microbe, parasite or virus in culture; assay type: cell-based; details: for EC50: Human immunodeficiency virus 1
In short: (§1)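 Single-round infectivity assay using luciferase-reporter pNLNgoMIVR−ΔEnv.LUC virus carrying site-directed integrase mutants, produced in 293 cells. Activity normalized to infectivity without compound; EC50 from regression fit.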

[2] = tested on: HIV-1 constructs containing mutant IN N155H; test: microbe, parasite or virus in culture; assay type: cell-based; details: for EC50: Human immunodeficiency virus 1
In short: as §1

[3] = tested on: HIV-1 constructs containing mutant IN Y143R; test: microbe, parasite or virus in culture; assay type: cell-based; details: for EC50: Human immunodeficiency virus 1
In short: as §1

[4] = tested on: HIV-1 constructs containing mutant IN G118R; test: microbe, parasite or virus in culture; assay type: cell-based; details: for EC50: Human immunodeficiency virus 1
Method: (§2) Single-Round HIV-1 Infectivity Assay.
(§3) Human embryonyl kidney cell culture cell line 293 was acquired from the American type Culture Collection (ATCC).
(§4) […]. […] The virus-containing supernatants were then harvested, clarified by low-speed centrifugation, filtrated, and diluted for preparation in infection assays. […] After compound incorporation and activation in the cell, 100 μL of virus-stock diluted to achieve a maximum luciferase signal between 0.2 and 1.5 RLUs was added to each well and further incubated at 37° C. for 48 hrs. […] Activity was normalized to infectivity in the absence of target compounds. KaleidaGraph (Synergy Software, Reading, Pa.) was used to perform regression analysis on the data. EC50 values were determined from the fit model.
(§5) pNLNgoMIVR^−ΔEnv.LUC has been described previously (Zhao et al. 2008). The integrase codon reading frame was removed from pNLNgoMIVR^−ΔEnv LUC (between KpnI and SalI sites) and placed between the KpnI and SalI sites of pBluescript II KS+. Using that construct as the wild-type template, we prepared the following HIV-1 Integrase-resistant mutants via the QuikChange II XL (Stratagene, La Jolla, Calif.) site-directed mutagenesis protocol: H51Y, T66I, E92Q, G118R, Y143R, Q148H, Q148K, N155H, R263K, G140S+Q148H, G140A+Q148K, E138K+Q148K, and H51Y+R263K. The following sense with cognate antisense (not shown) oligonucleotides (Integrated DNA Technologies, Coralville, Iowa) were used in the mutagenesis: H51Y, 5′-[…]-3; T66I, 5′-[…]-3′; E92Q, 5′-[…]-3′; G118R, 5′-[…]-3′; E138K, 5′-[…]-3; G140A, 5′-[…]-3; G140S, 5′-[…]-3′; Y143R, 5′-[…]-3′; Q148H, 5′-[…]-3′; Q148K, 5′-[…]-3; N155H, 5′-[…]-3′; R263K 5′-[…]-3′. The double mutation G140S+Q148H was constructed by using the previously generated Q148H mutant and the appropriate oligonucleotide for the 2nd mutation, G140S. The double mutation G140A+Q148K was made by using the Q148K mutant and the appropriate oligonucleotide for the 2nd mutation, G140A. The double mutation E138K+Q148K was made by using the Q148K mutant and the appropriate oligonucleotide for the 2nd mutation, E138K. The double mutation H51Y+R263K was constructed by using the previously generated H51Y mutant and the appropriate oligonucleotides for the 2nd mutation, R263K. The DNA sequence of each construct was verified independently by DNA sequence determination. The mutant integrase coding sequences from pBluescript II KS+ were then subcloned into pNLNgoMIVR^−ΔEnv LUC (between the KpnI and SalI sites) to produce the full-length mutant HIV-1 Integrase constructs. These DNA sequences were additionally checked independently by DNA sequence determination.

[5] = tested on: HIV-1 constructs containing mutant IN R263K; test: Single-round HIV-1 infectivity assay, IN mutant R263K; assay type: cell-based; details: Human immunodeficiency virus 1
Method: as §2, §3, §4, §5

[6] = Table 8, read-out: EC50 (nM, IN mutants) G140S/Q148H
[7] = Table 8, read-out: EC50 (nM, IN mutants) N155H
[8] = Table 8, read-out: EC50 (nM, IN mutants) Y143R
[9] = Table 8, read-out: EC50 (nM, IN mutants) G118R
[10] = Table 8, read-out: EC50 (nM, IN mutants) R263K
[11] = Table 3, G140S-Q148H double mutant, read-out: EC50 (nM, IN Mutants) SH
[12] = Table 3, read-out: EC50 (nM, IN Mutants) N155H
[13] = Table 3, read-out: EC50 (nM, IN Mutants) Y143R
[14] = Table 6, read-out: EC50 (nM, IN Mutants) G118R
[15] = Table 6, read-out: EC50 (nM, IN Mutants) R263K

`CC(=O)OCCCc1cnc2c(c1)c(N)c(C(=O)NCc1ccc(F)cc1F)c(=O)n2O` [XZ424, 3-(5-Amino-6-((2,4-difluorobenzyl)carbamoyl)-8-hydroxy-7-oxo-7,8-dihydro-1,8-naphthyridin-3-yl)propyl acetate] gave a CC50 (in vitro; Table 8) greater than 250000 nM, an EC50 [1, 6] of 13 nM and an EC50 [2, 7] of 5.4 nM. It also gave an EC50 [3, 8] of 2.93 nM, an EC50 [4, 9] of 5.9 nM and an EC50 [5, 10] of 1.75 nM.
`Nc1c(C(=O)NCc2ccc(F)cc2F)c(=O)n(O)c2ncc(CCCO)cc12` [XZ423, 4-Amino-N-(2,4-difluorobenzyl)-1-hydroxy-6-(3-hydroxypropyl)-2-oxo-1,2-dihydro-1,8-naphthyridine-3-carboxamide] gave a CC50 (in vitro; Table 8) greater than 250000 nM, an EC50 [1, 6] of 13.4 nM and an EC50 [2, 7] of 8.5 nM. It also gave an EC50 [3, 8] of 2.8 nM, an EC50 [4, 9] of 10 nM and an EC50 [5, 10] of 2.5 nM.
`CC(=O)OCCNc1c(C(=O)NCc2ccc(F)cc2F)c(=O)n(O)c2ncccc12` [XZ402, 2-((3-((2,4-difluorobenzyl)carbamoyl)-1-hydroxy-2-oxo-1,2-dihydro-1,8-naphthyridin-4-yl)amino)ethyl acetate] showed a CC50 (in vitro; Table 3) greater than 250000 nM, a CC50 (in vitro; Table 6) greater than 250000 nM and an EC50 [1, 11] of 35.1 ± 13.6 nM. It also gave an EC50 [2, 12] of 3.1 ± 0.3 nM, an EC50 [3, 13] of 4.8 ± 2.9 nM and an EC50 [4, 14] of 43.5 ± 11.2 nM. For the same compound, the EC50 [5, 15] was 16 ± 5.1 nM.
For `Nc1c(C(=O)NCc2ccc(F)cc2F)c(=O)n(O)c2ncc(CCCCCCCCO)cc12` [XZ433, 4-Amino-N-(2,4-difluorobenzyl)-1-hydroxy-6-(8-hydroxyoctyl)-2-oxo-1,2-dihydro-1,8-naphthyridine-3-carboxamide], the CC50 (in vitro; Table 8) was greater than 250000 nM, the EC50 [1, 6] was 7.7 nM and the EC50 [2, 7] was 6.5 nM. The EC50 [3, 8] was 3.2 nM, the EC50 [4, 9] was 11.1 nM and the EC50 [5, 10] was 3.8 nM.
`O=C(NCc1ccc(F)cc1F)c1c(O)c2cccnc2n(O)c1=O` [XZ351, N-(2,4-difluorobenzyl)-1,4-dihydroxy-2-oxo-1,2-dihydro-1,8-naphthyridine-3-carboxamide] gave a CC50 (in vitro; Table 2) of 137000 nM, a CC50 (in vitro; Table 3) of 137000 ± 20100 nM and a CC50 (in vitro; Table 6) of 137000 ± 20100 nM. The “Integrase Mutants SH (G140S-Q148H), fold-change in EC50 relative to WT” value [1] was 50 x, the EC50 [1, 11] was 308 ± 125 nM and the “Integrase Mutants N155H, fold-change in EC50 relative to WT” value [2] was 5 x. The EC50 [2, 12] was 30.5 ± 7.76 nM, the “Integrase Mutants Y143R, fold-change in EC50 relative to WT” value [3] was 2 x and the EC50 [3, 13] was 11.3 ± 1.93 nM. For the same compound, the “Integrase Mutants G118R, fold-change in EC50 relative to WT” value [4] was 6 x, the EC50 [4, 14] was 107 ± 40 nM and the EC50 [5, 15] was 35.9 ± 7.6 nM.
With `Nc1c(C(=O)NCc2ccc(F)cc2F)c(=O)n(O)c2ncc(CCCCCCO)cc12` [XZ426, 4-Amino-N-(2,4-difluorobenzyl)-1-hydroxy-6-(6-hydroxyhexyl)-2-oxo-1,2-dihydro-1,8-naphthyridine-3-carboxamide] the CC50 (in vitro; Table 8) was greater than 250000 nM, the EC50 [1, 6] was 9.4 nM and the EC50 [2, 7] was 2.7 nM. It also gave an EC50 [3, 8] of 2.1 nM, an EC50 [4, 9] of 6.4 nM and an EC50 [5, 10] of 8.4 nM.
For `C[C@@H]1CCO[C@H]2Cn3cc(C(=O)NCc4ccc(F)cc4F)c(=O)c(O)c3C(=O)N12` [DTG, dolutegravir, reference compound], the CC50 (in vitro; Table 8) was greater than 250000 nM, the EC50 [1, 6] was 5.8 nM and the EC50 [2, 7] was 3.6 nM. For the same compound, the EC50 [3, 8] was 4.3 nM, the EC50 [4, 9] was 13 ± 5 nM and the EC50 [5, 10] was 11.3 nM.
In the case of `O=C(NCc1ccc(F)cc1F)c1c(NCCO)c2cc(CCCCCO)cnc2n(O)c1=O` [XZ437, N-(2,4-Difluorobenzyl)-1-hydroxy-4-((2-hydroxyethyl)amino)-6-(5-hydroxypentyl)-2-oxo-1,2-dihydro-1,8-naphthyridine-3-carboxamide], the CC50 (in vitro; Table 8) is reported as greater than 250000 nM, the EC50 [1, 6] is reported as 15.5 nM and the EC50 [2, 7] is reported as 15 nM. It also gave an EC50 [3, 8] of 11.6 nM, an EC50 [4, 9] of 23.9 nM and an EC50 [5, 10] of 18.1 nM.
`Nc1c(C(=O)NCc2ccc(F)cc2F)c(=O)n(O)c2ncc(CCCCCO)cc12` [XZ419, 4-Amino-N-(2,4-difluorobenzyl)-1-hydroxy-6-(5-hydroxypentyl)-2-oxo-1,2-dihydro-1,8-naphthyridine-3-carboxamide] gave a CC50 (in vitro; Table 8) greater than 250000 nM, an EC50 [1, 6] of 6.9 nM and an EC50 [2, 7] of 2.4 nM. For the same compound, the EC50 [3, 8] was 3 nM, the EC50 [4, 9] was 5.3 nM and the EC50 [5, 10] was 2.6 nM.
`COC(=O)CNc1c(C(=O)NCc2ccc(F)cc2F)c(=O)n(O)c2ncccc12` [XZ379, Methyl 2-((3-((2,4-difluorobenzyl)carbamoyl)-1-hydroxy-2-oxo-1,2-dihydro-1,8-naphthyridin-4-yl)amino)acetate] gave a CC50 (in vitro; Table 3) greater than 250000 nM, a CC50 (in vitro; Table 6) greater than 250000 nM and an EC50 [1, 11] of 35.5 ± 15.9 nM. For the same compound, the EC50 [2, 12] was 19 ± 6.9 nM, the EC50 [3, 13] was 4.6 ± 2.2 nM and the EC50 [4, 14] was 41.3 ± 18 nM. The EC50 [5, 15] was 25.9 ± 8.2 nM.
In the case of `COC(=O)CCc1cnc2c(c1)c(NCCO)c(C(=O)NCc1ccc(F)cc1F)c(=O)n2O` [XZ438, Methyl 3-(6-((2,4-difluorobenzyl)carbamoyl)-8-hydroxy-5-((2-hydroxyethyl)amino)-7-oxo-7,8-dihydro-1,8-naphthyridin-3-yl)propanoate], the CC50 (in vitro; Table 8) is reported as greater than 250000 nM, the EC50 [1, 6] is reported as 15.9 nM and the EC50 [2, 7] is reported as 3.9 nM. For the same compound, the EC50 [3, 8] was 3.8 nM, the EC50 [4, 9] was 4.8 nM and the EC50 [5, 10] was 6.5 nM.
`COC(=O)CCc1cnc2c(c1)c(N)c(C(=O)NCc1ccc(F)cc1F)c(=O)n2O` [XZ434, Methyl 3-(5-amino-6-((2,4-difluorobenzyl)carbamoyl)-8-hydroxy-7-oxo-7,8-dihydro-1,8-naphthyridin-3-yl)propanoate] showed a CC50 (in vitro; Table 8) greater than 250000 nM, an EC50 [1, 6] of 5.3 nM and an EC50 [2, 7] of 2.3 nM. The EC50 [3, 8] was 0.67 nM, the EC50 [4, 9] was 4.8 nM and the EC50 [5, 10] was 0.5 nM.
Work on `O=C(NCc1ccc(F)cc1F)c1c(O)c2c(CO)ccnc2n(O)c1=O` [XZ440, N-(2,4-Difluorobenzyl)-1,4-dihydroxy-5-(hydroxymethyl)-2-oxo-1,2-dihydro-1,8-naphthyridine-3-carboxamide] yielded a CC50 (in vitro; Table 8) greater than 250000 nM, an EC50 [1, 6] of 14.7 nM and an EC50 [2, 7] of 14.9 nM. It also gave an EC50 [3, 8] of 2.6 nM, an EC50 [4, 9] of 23 nM and an EC50 [5, 10] of 4 ± 1.4 nM.
